The text below walks through data of patent US9827275B2, “Immunostimulatory compositions and methods of use thereof” (Comvita New Zealand Ltd., priority 2010, dated 2017).

One assay relates to primed macrophage cells. Nature of the assay: cytokine TNFα response of primed macrophage cells. Particulars: added alone to primed macrophage cells. The assay is classed as cell-based.
For another assay, the system named is THP-1 cells. Nature of the assay: TNF-α release/production from THP-1 cell line. The assay is classed as cell-based. Particulars: FIG. 8, THP-1 cell line. On the procedure:
In this example the ability of three New Zealand honeys to elicit the release of TNF-α from the monocytic cell lines THP-1 and U937 were investigated and the bioactive component responsible identified.
In this example, the effect or otherwise of pure AGP was analysed to determine how AGP influences cytokine stimulation as exemplified by TNF-α production from THP-1 cell line.
Varying doses of LPS were tested against THP-1 cell line and the cytokine response measured. […] The results further reinforce the presence of type II AG compounds and their influence on inflammation.

Protocol for primed macrophage cells: Macrophage cells were then matured to a point where they were primed and ready to respond to an input. Adding varying levels of LPS and measuring the cytokine TNFα response confirmed the maturity and readiness of the macrophage cells.
A variety of different honeys were then added to the primed macrophage cells and the cytokine response measured to determine if there were any trends. ethylglyoxal (MGO) was also added with or without honey to determine if this ingredient of manuka honey also influenced the immune stimulation effects. A sugar solution was also used to determine if this had any effect as well.
Honey samples (5% (w/v) and LPS (1000 ng/mL) were prepared in water and heated at 80° C. for 30 min in a shaking water bath. After heat processing, further dilutions were performed in RPMI medium and the resulting honey tested for cytokine response.

For the molecule `CC(=O)C=O` [MGO, methylglyoxal], the “impact on immune stimulation (cytokine response)” value with primed macrophage cells is listed as “no impact”. Further, in the assay with THP-1 cells, the pro-inflammatory response entry is recorded as “no significant pro-inflammatory response”.
